Data published in PubChem BioAssay (NCI).
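1) Cells in 96-well plates. 2) Compound, 48 h, 5 concentrations. 3) Linear interpolation between surrounding doses. 4) Unreached endpoint = highest concentration. Here, GI50 denotes the concentration required for 50% inhibition of growth. At the TGI there is no net growth.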

Legend:
Assay in all cases: growth of human tumour cells (NCI), 48 h
K-562 leukemia = tested on: K-562 leukemia
OVCAR-3 ovarian = tested on: OVCAR-3 ovarian
MOLT-4 leukemia = tested on: MOLT-4 leukemia
LOX IMVI melanoma = tested on: LOX IMVI melanoma
MALME-3M melanoma = tested on: MALME-3M melanoma
SF-539 CNS = tested on: SF-539 CNS
MDA-MB-435 = tested on: MDA-MB-435
HOP-92 NSCLC = tested on: HOP-92 NSCLC
HCC-2998 colon = tested on: HCC-2998 colon
IGROV1 ovarian = tested on: IGROV1 ovarian
M14 melanoma = tested on: M14 melanoma
SK-MEL-2 melanoma = tested on: SK-MEL-2 melanoma
HS 578T breast = tested on: HS 578T breast
UACC-62 melanoma = tested on: UACC-62 melanoma
NCI-H522 lung = tested on: NCI-H522 lung
SF-268 CNS = tested on: SF-268 CNS
HT29 colon = tested on: HT29 colon
U251 CNS = tested on: U251 CNS
T-47D breast = tested on: T-47D breast
PC-3 prostate = tested on: PC-3 prostate
SK-MEL-5 melanoma = tested on: SK-MEL-5 melanoma
UACC-257 melanoma = tested on: UACC-257 melanoma
SN12C renal = tested on: SN12C renal
OVCAR-4 ovarian = tested on: OVCAR-4 ovarian
SK-OV-3 ovarian = tested on: SK-OV-3 ovarian
DU-145 prostate = tested on: DU-145 prostate
NCI/ADR-RES ovarian = tested on: NCI/ADR-RES ovarian
RPMI-8226 leukemia = tested on: RPMI-8226 leukemia
HL-60(TB) leukemia = tested on: HL-60(TB) leukemia
EKVX NSCLC = tested on: EKVX NSCLC
RXF 393 renal = tested on: RXF 393 renal
NCI-H23 lung = tested on: NCI-H23 lung
SW-620 colon = tested on: SW-620 colon
MDA-MB-231 breast = tested on: MDA-MB-231 breast
KM12 colon = tested on: KM12 colon
SK-MEL-28 melanoma = tested on: SK-MEL-28 melanoma
COLO 205 colon = tested on: COLO 205 colon
NCI-H226 lung = tested on: NCI-H226 lung
OVCAR-5 ovarian = tested on: OVCAR-5 ovarian
HOP-62 NSCLC = tested on: HOP-62 NSCLC
UO-31 renal = tested on: UO-31 renal
OVCAR-8 ovarian = tested on: OVCAR-8 ovarian
SNB-75 CNS = tested on: SNB-75 CNS
A549 NSCLC = tested on: A549 NSCLC
BT-549 breast = tested on: BT-549 breast
SR leukemia = tested on: SR leukemia
HCT-116 colon = tested on: HCT-116 colon
TK-10 renal = tested on: TK-10 renal
786-0 renal = tested on: 786-0 renal
CCRF-CEM leukemia = tested on: CCRF-CEM leukemia
SF-295 CNS = tested on: SF-295 CNS
MCF7 breast = tested on: MCF7 breast
ACHN renal = tested on: ACHN renal
HCT-15 colon = tested on: HCT-15 colon
SNB-19 CNS = tested on: SNB-19 CNS
A498 renal = tested on: A498 renal
NCI-H460 lung = tested on: NCI-H460 lung

O=C(C1CC1)N1CC[C@@H](Cc2n[nH]c(=O)n2-c2ccc(-c3ccc4occc4c3)cc2)C1
GI50 (K-562 leukemia): 8.18 µM
TGI (K-562 leukemia): > 100 µM
GI50 (OVCAR-3 ovarian): 15.8 µM
TGI (OVCAR-3 ovarian): > 73.7 µM
GI50 (MOLT-4 leukemia): 6.09 µM
TGI (MOLT-4 leukemia): > 88.5 µM
GI50 (LOX IMVI melanoma): 10.3 µM
TGI (LOX IMVI melanoma): 51.3 µM
GI50 (MALME-3M melanoma): 22.4 µM
TGI (MALME-3M melanoma): > 87.8 µM
GI50 (SF-539 CNS): 8.16 µM
TGI (SF-539 CNS): > 100 µM
GI50 (MDA-MB-435): 14.8 µM
TGI (MDA-MB-435): > 87.6 µM
GI50 (HOP-92 NSCLC): 24.4 µM
TGI (HOP-92 NSCLC): > 100 µM
GI50 (HCC-2998 colon): 33.9 µM
TGI (HCC-2998 colon): > 100 µM
GI50 (IGROV1 ovarian): 21.2 µM
TGI (IGROV1 ovarian): > 100 µM
GI50 (M14 melanoma): 17.2 µM
TGI (M14 melanoma): > 100 µM
GI50 (SK-MEL-2 melanoma): 21.5 µM
TGI (SK-MEL-2 melanoma): 70.3 µM
GI50 (HS 578T breast): 21.3 µM
TGI (HS 578T breast): > 100 µM
GI50 (UACC-62 melanoma): 21.1 µM
TGI (UACC-62 melanoma): > 100 µM
GI50 (NCI-H522 lung): 20.9 µM
TGI (NCI-H522 lung): > 92 µM
GI50 (SF-268 CNS): 12.4 µM
TGI (SF-268 CNS): > 100 µM
GI50 (HT29 colon): 7.51 µM
TGI (HT29 colon): > 81.1 µM
GI50 (U251 CNS): 25.4 µM
TGI (U251 CNS): > 100 µM
GI50 (T-47D breast): 18 µM
TGI (T-47D breast): > 96.5 µM
GI50 (PC-3 prostate): 23.2 µM
TGI (PC-3 prostate): > 100 µM
GI50 (SK-MEL-5 melanoma): 12 µM
TGI (SK-MEL-5 melanoma): 33.6 µM
GI50 (UACC-257 melanoma): 29 µM
TGI (UACC-257 melanoma): > 96.6 µM
GI50 (SN12C renal): 23.2 µM
TGI (SN12C renal): > 100 µM
GI50 (OVCAR-4 ovarian): 9.02 µM
TGI (OVCAR-4 ovarian): > 94.5 µM
GI50 (SK-OV-3 ovarian): 25.4 µM
TGI (SK-OV-3 ovarian): > 100 µM
GI50 (DU-145 prostate): 23.4 µM
TGI (DU-145 prostate): > 100 µM
GI50 (NCI/ADR-RES ovarian): 30.8 µM
TGI (NCI/ADR-RES ovarian): > 100 µM
GI50 (RPMI-8226 leukemia): 2.82 µM
TGI (RPMI-8226 leukemia): > 75.4 µM
GI50 (HL-60(TB) leukemia): 0.131 µM
TGI (HL-60(TB) leukemia): > 44.4 µM
GI50 (EKVX NSCLC): 12.6 µM
TGI (EKVX NSCLC): > 100 µM
GI50 (RXF 393 renal): 24.2 µM
TGI (RXF 393 renal): > 100 µM
GI50 (NCI-H23 lung): 39.1 µM
TGI (NCI-H23 lung): > 100 µM
GI50 (SW-620 colon): 27.6 µM
TGI (SW-620 colon): > 100 µM
GI50 (MDA-MB-231 breast): 20.4 µM
TGI (MDA-MB-231 breast): > 100 µM
GI50 (KM12 colon): 17.6 µM
TGI (KM12 colon): > 100 µM
GI50 (SK-MEL-28 melanoma): 32 µM
TGI (SK-MEL-28 melanoma): > 100 µM
GI50 (COLO 205 colon): 15 µM
TGI (COLO 205 colon): 72.5 µM
GI50 (NCI-H226 lung): 19.6 µM
TGI (NCI-H226 lung): > 100 µM
GI50 (OVCAR-5 ovarian): 42.5 µM
TGI (OVCAR-5 ovarian): > 100 µM
GI50 (HOP-62 NSCLC): 23.4 µM
TGI (HOP-62 NSCLC): > 100 µM
GI50 (UO-31 renal): 1.91 µM
TGI (UO-31 renal): 65.4 µM
GI50 (OVCAR-8 ovarian): 25.3 µM
TGI (OVCAR-8 ovarian): > 100 µM
GI50 (SNB-75 CNS): 13.7 µM
TGI (SNB-75 CNS): > 94.1 µM
GI50 (A549 NSCLC): 16.9 µM
TGI (A549 NSCLC): > 100 µM
GI50 (BT-549 breast): 1.65 µM
TGI (BT-549 breast): 48.7 µM
GI50 (SR leukemia): 23.9 µM
TGI (SR leukemia): > 100 µM
GI50 (HCT-116 colon): 14.3 µM
TGI (HCT-116 colon): 84 µM
GI50 (TK-10 renal): 28.3 µM
TGI (TK-10 renal): > 100 µM
GI50 (786-0 renal): 12.3 µM
TGI (786-0 renal): > 100 µM
GI50 (CCRF-CEM leukemia): 15.6 µM
TGI (CCRF-CEM leukemia): > 100 µM
GI50 (SF-295 CNS): 11.5 µM
TGI (SF-295 CNS): > 100 µM
GI50 (MCF7 breast): 1.62 µM
TGI (MCF7 breast): > 100 µM
GI50 (ACHN renal): 11.8 µM
TGI (ACHN renal): 54.8 µM
GI50 (HCT-15 colon): 11.2 µM
TGI (HCT-15 colon): > 100 µM
GI50 (SNB-19 CNS): 17 µM
TGI (SNB-19 CNS): > 100 µM
GI50 (A498 renal): 15 µM
TGI (A498 renal): > 85.4 µM
GI50 (NCI-H460 lung): 3.2 µM
TGI (NCI-H460 lung): > 100 µM
